Values joined by “and” are separate entries in the source; they are usually repeats but may differ in a detail not shown here. Identical values can stand only once. Like-named read-outs stand apart in the source and are kept apart here. Where a SMILES comes first, the peptide text is derived from it. [ ]: non-standard residue; d: D form. The star is where a group is joined. Sta = CC(C)C[C@H](N)[C@@H](O)CC(=O)O; Isovaleryl = CC(C)CC(=O)*
Assays:
ruLAP2 = ruLAP2 (Trichophyton rubrum, UniProt Q5QHG6); format: biochemical; details: for effect of inhibitor on ruLAP2 activity: Leu-AMC 5 mM; for ruLAP2 activity as percentage of control reaction without any cation / ruLAP2 activity as percentage of control reaction without inhibitor: Leu-MCA substrate, 15 min pre-incubation
Sequence of ruLAP2 (Q5QHG6 20-495): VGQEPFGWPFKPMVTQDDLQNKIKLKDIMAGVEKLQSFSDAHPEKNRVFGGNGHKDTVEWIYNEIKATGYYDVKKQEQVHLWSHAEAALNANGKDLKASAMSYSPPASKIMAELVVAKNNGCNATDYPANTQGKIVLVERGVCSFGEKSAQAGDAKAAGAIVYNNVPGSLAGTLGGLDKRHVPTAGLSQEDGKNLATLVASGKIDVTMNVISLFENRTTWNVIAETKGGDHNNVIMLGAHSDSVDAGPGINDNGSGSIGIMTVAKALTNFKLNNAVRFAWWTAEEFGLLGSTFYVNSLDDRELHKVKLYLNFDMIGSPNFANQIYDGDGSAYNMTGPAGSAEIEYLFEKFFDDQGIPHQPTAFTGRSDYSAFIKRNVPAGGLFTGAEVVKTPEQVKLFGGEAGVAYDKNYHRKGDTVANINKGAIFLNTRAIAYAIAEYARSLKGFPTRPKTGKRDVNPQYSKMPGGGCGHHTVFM

[1] = biological target: T1, pkLAP (microsomal LAP from porcine kidney) (Sus scrofa, UniProt P15145); assay: Effect of inhibitors and metallic cations on LAP activity (Leu-AMC); format: biochemical; details: for pkLAP activity as percentage of control reaction without any cation / pkLAP activity as percentage of control reaction without inhibitor / remaining activity at 100 µM: Leu-MCA substrate, 15 min pre-incubation; for effect of divalent cation on pkLAP activity: Leu-AMC, cations 0.5 mM and 1 mM; for effect of inhibitor on pkLAP activity: Leu-AMC 5 mM
T1 construct: purchased Sigma; host or cells: porcine kidney
T1 sequence (P15145 1-963): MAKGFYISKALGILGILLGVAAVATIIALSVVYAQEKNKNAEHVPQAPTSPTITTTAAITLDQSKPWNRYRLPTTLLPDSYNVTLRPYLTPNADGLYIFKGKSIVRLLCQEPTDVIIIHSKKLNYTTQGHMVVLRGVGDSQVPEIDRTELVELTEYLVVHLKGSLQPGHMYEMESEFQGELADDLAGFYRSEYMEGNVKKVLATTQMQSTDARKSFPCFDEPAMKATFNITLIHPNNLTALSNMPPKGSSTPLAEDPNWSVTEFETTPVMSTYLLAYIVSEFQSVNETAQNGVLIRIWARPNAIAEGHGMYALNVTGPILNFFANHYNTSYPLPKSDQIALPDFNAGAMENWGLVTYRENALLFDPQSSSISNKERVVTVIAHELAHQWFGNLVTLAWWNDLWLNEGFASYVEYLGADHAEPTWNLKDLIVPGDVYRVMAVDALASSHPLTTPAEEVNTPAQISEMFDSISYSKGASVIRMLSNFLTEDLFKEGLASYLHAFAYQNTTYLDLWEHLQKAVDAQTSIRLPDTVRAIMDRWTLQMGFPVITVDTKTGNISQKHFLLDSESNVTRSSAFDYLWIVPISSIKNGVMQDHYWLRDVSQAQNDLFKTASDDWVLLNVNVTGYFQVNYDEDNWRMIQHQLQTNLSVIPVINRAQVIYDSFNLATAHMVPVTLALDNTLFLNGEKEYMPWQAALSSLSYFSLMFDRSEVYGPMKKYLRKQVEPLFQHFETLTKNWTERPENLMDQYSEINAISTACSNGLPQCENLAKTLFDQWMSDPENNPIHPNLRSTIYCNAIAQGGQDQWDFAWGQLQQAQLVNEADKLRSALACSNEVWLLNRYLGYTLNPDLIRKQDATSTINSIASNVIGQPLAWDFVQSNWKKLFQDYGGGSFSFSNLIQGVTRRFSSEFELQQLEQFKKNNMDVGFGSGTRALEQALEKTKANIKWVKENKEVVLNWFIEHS

ruLAP1 = ruLAP1 (Trichophyton rubrum, UniProt Q5QHG5); format: biochemical; details: for effect of inhibitor on ruLAP1 activity: Leu-AMC 5 mM
Sequence of ruLAP1 (Q5QHG5 21-373): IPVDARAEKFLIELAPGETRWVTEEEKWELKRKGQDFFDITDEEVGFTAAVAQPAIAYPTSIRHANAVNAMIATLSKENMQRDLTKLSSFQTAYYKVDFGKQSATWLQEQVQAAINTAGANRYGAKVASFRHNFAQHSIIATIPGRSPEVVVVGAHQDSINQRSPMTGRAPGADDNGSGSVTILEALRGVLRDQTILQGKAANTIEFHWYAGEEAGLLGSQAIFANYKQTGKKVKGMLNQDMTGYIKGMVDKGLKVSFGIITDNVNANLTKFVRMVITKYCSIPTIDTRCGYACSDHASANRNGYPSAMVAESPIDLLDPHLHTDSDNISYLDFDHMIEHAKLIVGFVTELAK

fuLAP2 = format: biochemical, Aspergillus fumigatus; details: for effect of divalent cation on fuLAP2 activity: Leu-AMC, cations 0.5 mM and 1 mM; for effect of inhibitor on fuLAP2 activity: Leu-AMC 5 mM
fuLAP1 = fuLAP1 (Aspergillus fumigatus, UniProt Q5VJG6); assay: biochemical; format: biochemical; details: for effect of divalent cation on fuLAP1 activity: Leu-AMC, cations 0.5 mM and 1 mM; for fuLAP1 activity as percentage of control reaction without any cation / fuLAP1 activity as percentage of control reaction without inhibitor / remaining activity at 100 µM: Leu-MCA substrate, 15 min pre-incubation
Sequence of fuLAP1 (Q5VJG6 16-388): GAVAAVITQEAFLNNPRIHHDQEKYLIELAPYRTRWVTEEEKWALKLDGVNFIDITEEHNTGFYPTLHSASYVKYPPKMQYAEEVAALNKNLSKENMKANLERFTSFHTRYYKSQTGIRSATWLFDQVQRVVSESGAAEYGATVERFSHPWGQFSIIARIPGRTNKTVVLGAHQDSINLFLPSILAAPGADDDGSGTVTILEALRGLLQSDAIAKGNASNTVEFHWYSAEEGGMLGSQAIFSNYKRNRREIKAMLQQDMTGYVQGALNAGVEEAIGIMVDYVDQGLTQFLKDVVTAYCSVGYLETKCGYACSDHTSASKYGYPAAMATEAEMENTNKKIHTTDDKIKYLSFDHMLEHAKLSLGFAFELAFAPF

[2] = cation salt 0.5 mM, Leu-MCA substrate, 15 min pre-incubation
[3] = cation salt 1 mM, Leu-MCA substrate, 15 min pre-incubation
[4] = inhibitor 100 μM, Leu-MCA substrate, 15 min pre-incubation
[5] = read-out: pkLAP activity as percentage of control reaction without inhibitor
[6] = read-out: fuLAP1 activity as percentage of control reaction without inhibitor
[7] = inhibitor 100 μM, read-out: pkLAP activity as percentage of control reaction without inhibitor
[8] = inhibitor 100 μM, read-out: fuLAP1 activity as percentage of control reaction without inhibitor
[9] = inhibitor 20 μM, Leu-MCA substrate, 15 min pre-incubation

SMILES | effect of inhibitor on ruLAP2 activity (ruLAP2) | pkLAP activity as percentage of control reaction without any cation ([1]; cation salt 0.5 mM) [%] | pkLAP activity as percentage of control reaction without any cation ([1]; cation salt 1 mM) [%] | ruLAP1 activity as percentage of control reaction without any cation (ruLAP1) | ruLAP2 activity as percentage of control reaction without any cation (ruLAP2; cation salt 0.5 mM) [%] | ruLAP2 activity as percentage of control reaction without any cation (ruLAP2; cation salt 1 mM) [%] | fuLAP2 activity as percentage of control reaction without any cation (fuLAP2; [2]) [%] | fuLAP2 activity as percentage of control reaction without any cation (fuLAP2; [3]) [%] | fuLAP1 activity as percentage of control reaction without any cation (fuLAP1; cation salt 0.5 mM) [%] | fuLAP1 activity as percentage of control reaction without any cation (fuLAP1; cation salt 1 mM) [%] | effect of inhibitor on ruLAP1 activity (ruLAP1) | also measured
CC(C)C[C@H](NC(=O)[C@H]1O[C@@H]1C(=O)O)C(=O)NCCCCN=C(N)N (relative stereo) [E64, L-trans-epoxysuccinyl-leu-4-guanidinobutylamide] | blunted the activity | – | – | – | – | – | – | – | – | – | – | –
[Ca+2].[Cl-].[Cl-] [Ca^++, CaCl2] | – | 177.4 | 161.8 | 151.7% and 175.6% | 126.6 | 141.9 | 110.0 | 165.4 | 54.9 | 43.3 | – | effect of divalent cation on fuLAP2 activity (fuLAP2): activated; effect of divalent cation on fuLAP1 activity (fuLAP1): inhibited
[Cl-].[Cl-].[Co+2] [Co^++, CoCl2] | – | 876.1 | 899.8 | 210.2% and 202.1% | 591.2 | 789.7 | 378.0 | 662.7 | 104.3 | 96.5 | – | effect of divalent cation on ruLAP2 activity (ruLAP2; Leu-AMC, cations 0.5 mM and 1 mM): highly activated; effect of divalent cation on fuLAP2 activity (fuLAP2): highly activated
[Cl][Cu][Cl] [Cu^++, CuCl2] | – | 1422.0 | 1092.4 | – | 50.9 | 34.7 | 68.9 | 73.6 | 25.8 | 17.0 | – | effect of divalent cation on pkLAP activity [1]: highly activated
CC(C)C[C@H](NC(=O)[C@H]1O[C@@H]1C(=O)O)C(=O)NCCCCN=C(N)N [E 64] | – | – | – | – | – | – | – | – | – | – | – | pkLAP activity as percentage of control reaction without inhibitor ([1]; inhibitor 100 μM): 93%; ruLAP1 activity as percentage of control reaction without inhibitor (ruLAP1; 100 µM): 103%; ruLAP2 activity as percentage of control reaction without inhibitor (ruLAP2; inhibitor 100 μM): 34%; fuLAP2 activity as percentage of control reaction without inhibitor (fuLAP2; [4]): 71%; fuLAP1 activity as percentage of control reaction without inhibitor (fuLAP1; inhibitor 100 μM): 190%
O=C(O)CN(CCN(CC(=O)O)CC(=O)O)CC(=O)O [EDTA] | more sensitive | – | – | – | – | – | – | – | – | – | more sensitive | remaining activity at 1000 µM [1, 5]: 68%; remaining activity at 5000 µM [1, 5]: 99%; fuLAP2 activity as percentage of control reaction without inhibitor (fuLAP2): 50% and 77%; effect of inhibitor on fuLAP1 activity (fuLAP1): more sensitive; remaining activity at 1000 µM (fuLAP1; [6]): 19%; remaining activity at 5000 µM (fuLAP1; [6]): 16%
CC(=O)N[C@@H](CC(C)C)C(=O)N[C@@H](CC(C)C)C(=O)N[C@H](C=O)CCCNC(=N)N [Leupeptin, leupeptin] | no clear inhibitory effects | – | – | – | – | – | – | – | – | – | no clear inhibitory effects | effect of inhibitor on pkLAP activity [1]: no clear inhibitory effects; remaining activity at 100 µM [1, 7]: 86%; effect of inhibitor on fuLAP2 activity (fuLAP2): no clear inhibitory effects; fuLAP2 activity as percentage of control reaction without inhibitor (fuLAP2; [4]): 61%; effect of inhibitor on fuLAP1 activity (fuLAP1; Leu-AMC 5 mM): no clear inhibitory effects; remaining activity at 100 µM (fuLAP1; [8]): 149%
[Cl-].[Cl-].[Mg+2] [MgCl2] | – | 130.1 | 146.1 | 129.9% and 132.6% | 121.2 | 110.2 | 97.6 | 108.0 | 68.5 | 72.6 | – | –
[Cl][Mn][Cl] [Mn^++, MnCl2] | – | 157.6 | 165.8 | 120.7% and 105.2% | 77.5 | 86.8 | 84.3 | 140.2 | 25.9 | 28.4 | – | effect of divalent cation on fuLAP2 activity (fuLAP2): activated; effect of divalent cation on fuLAP1 activity (fuLAP1): inhibited
[Cl][Ni][Cl] [Ni, NiCl2] | – | 1187.7 | 1158.7 | 74.8% and 58.1% | 130.5 | 147.9 | 98.4 | 149.3 | 51.7 | 37.2 | – | effect of divalent cation on pkLAP activity [1]: highly activated
Cc1ccc(S(=O)(=O)N[C@@H](CCCCN)C(=O)CCl)cc1 [TLCK] | no clear inhibitory effects | – | – | – | – | – | – | – | – | – | no clear inhibitory effects | effect of inhibitor on pkLAP activity [1]: no clear inhibitory effects; pkLAP activity as percentage of control reaction without inhibitor ([1]; inhibitor 20 μM): 113%; ruLAP1 activity as percentage of control reaction without inhibitor (ruLAP1; [9]): 68%; ruLAP2 activity as percentage of control reaction without inhibitor (ruLAP2; inhibitor 20 μM): 96%; effect of inhibitor on fuLAP2 activity (fuLAP2): no clear inhibitory effects; fuLAP2 activity as percentage of control reaction without inhibitor (fuLAP2; [9]): 120%; effect of inhibitor on fuLAP1 activity (fuLAP1; Leu-AMC 5 mM): no clear inhibitory effects; fuLAP1 activity as percentage of control reaction without inhibitor (fuLAP1; inhibitor 20 μM): 80%
Cc1ccc(S(=O)(=O)N[C@@H](Cc2ccccc2)C(=O)CCl)cc1 [TPCK] | no clear inhibitory effects | – | – | – | – | – | – | – | – | – | no clear inhibitory effects | effect of inhibitor on pkLAP activity [1]: no clear inhibitory effects; pkLAP activity as percentage of control reaction without inhibitor ([1]; inhibitor 20 μM): 108%; ruLAP1 activity as percentage of control reaction without inhibitor (ruLAP1; [9]): 68%; ruLAP2 activity as percentage of control reaction without inhibitor (ruLAP2; inhibitor 20 μM): 79%; effect of inhibitor on fuLAP2 activity (fuLAP2): no clear inhibitory effects; fuLAP2 activity as percentage of control reaction without inhibitor (fuLAP2; [9]): 87%; effect of inhibitor on fuLAP1 activity (fuLAP1; Leu-AMC 5 mM): no clear inhibitory effects; fuLAP1 activity as percentage of control reaction without inhibitor (fuLAP1; inhibitor 20 μM): 95%
[Cl-].[Cl-].[Zn+2] [Zn, ZnCl2] | – | 437.6 | 297.9 | 43.0% and 68.9% | 77.9 | 88.9 | 51.4 | 119.5 | 60.7 | 53.2 | – | effect of divalent cation on pkLAP activity [1]: highly activated
CC(C)CC(=O)N[C@H](C(=O)N[C@H](C(=O)N[C@@H](CC(C)C)[C@@H](O)CC(=O)N[C@@H](C)C(=O)N[C@@H](CC(C)C)[C@@H](O)CC(=O)O)C(C)C)C(C)C [pepstatin, pepstatin A] (Isovaleryl-VV[Sta]A[Sta]-OH) | – | – | – | – | – | – | – | – | – | – | some sensitivity | remaining activity at 100 µM [1, 7]: 64%; fuLAP2 activity as percentage of control reaction without inhibitor (fuLAP2; [4]): 73%; effect of inhibitor on fuLAP1 activity (fuLAP1; Leu-AMC 5 mM): some sensitivity; remaining activity at 100 µM (fuLAP1; [8]): 14%

Reference: patent US7354734B2, “Fungal proteins and nucleic acids encoding same” (priority 2003, dated 2008)
